This note sets out measurements from US20190175571A1, “IMIDAZOLE DERIVATIVES AND THEIR USE IN THE TREATMENT OF AUTOIMMUNE OR INFLAMMATORY DISEASES OR CANCERS” (GLAXOSMITHKLINE INTELLECTUAL PROPERTY (NO.2) LIMITED, priority 2016, published 2019).

Data set [1] concerns the target T1, BRDT BD1 (Homo sapiens, UniProt Q58F21, Y309A).
T1 construct: BRDT (1-397) (Y66A) and (Y309A); made in house; host or cells: E. coli (pET28a)
Kind of data set: TR-FRET competition assay, BRDT BD1. It is filed as binding. The note with it: TR-FRET competition with Reference Compound X; range stated for the listed group; read-out: mean pIC50 in the BRDT BD1 assay (converted). On the technique in general: Time-resolved FRET reads energy transfer from a long-lived donor to a nearby acceptor.

Data set [2] addresses T2, BRD2 BD2 (Homo sapiens, UniProt P25440, Y113A).
T2 construct: BRD2 (1-473) (Y113A) and (Y386A); made in house; host or cells: E. coli (pET15b)
Description: TR-FRET competition assay, BRD2 BD2. As to conditions: TR-FRET competition with Reference Compound X; range stated for the listed group; read-out: mean pIC50 in the BRD2 BD2 assay (converted). It is filed as binding.

The target in data set [3] is T3, BRDT BD2 (Homo sapiens, UniProt Q58F21, Y66A).
T3 construct: BRDT (1-397) (Y66A) and (Y309A); made in house; host or cells: E. coli (pET28a)
Kind of data set: TR-FRET competition assay, BRDT BD2. It is filed as binding. As to conditions: TR-FRET competition with Reference Compound X; range stated for the listed group; read-out: mean pIC50 in the BRDT BD2 assay (converted).

For data set [4], the target named is T4, BRD2 BD1 (Homo sapiens, UniProt P25440, Y386A).
T4 construct: BRD2 (1-473) (Y113A) and (Y386A); made in house; host or cells: E. coli (pET15b)
T4 sequence (P25440 1-473 Y386A): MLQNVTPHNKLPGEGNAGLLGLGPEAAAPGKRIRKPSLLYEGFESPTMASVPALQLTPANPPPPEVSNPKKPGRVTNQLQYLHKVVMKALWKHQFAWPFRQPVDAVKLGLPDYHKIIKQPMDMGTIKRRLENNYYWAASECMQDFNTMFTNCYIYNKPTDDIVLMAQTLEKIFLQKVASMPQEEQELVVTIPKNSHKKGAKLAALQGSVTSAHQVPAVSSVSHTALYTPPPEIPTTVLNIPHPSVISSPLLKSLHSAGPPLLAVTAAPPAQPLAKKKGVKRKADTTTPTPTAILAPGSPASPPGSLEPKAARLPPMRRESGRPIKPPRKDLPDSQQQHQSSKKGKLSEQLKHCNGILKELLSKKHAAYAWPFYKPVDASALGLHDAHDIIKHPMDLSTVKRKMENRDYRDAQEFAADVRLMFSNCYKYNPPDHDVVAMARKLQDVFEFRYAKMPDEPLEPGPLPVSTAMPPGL
Description: TR-FRET competition assay, BRD2 BD1. It is filed as binding. As to conditions: TR-FRET competition with Reference Compound X; range stated for the listed group; read-out: mean pIC50 in the BRD2 BD1 assay (converted).

Data set [5] addresses T5, BRD3 BD2 (Homo sapiens, UniProt Q15059, Y73A).
T5 construct: BRD3 (1-435) (Y73A) and (Y348A); made in house; host or cells: E. coli (pET15b)
Kind of data set: TR-FRET competition assay, BRD3 BD2. It counts as binding. As to conditions: TR-FRET competition with Reference Compound X; range stated for the listed group; read-out: mean pIC50 in the BRD3 BD2 assay (converted).

Data set [6] deals with T6, BRD3 BD1 (Homo sapiens, UniProt Q15059, Y348A).
T6 construct: BRD3 (1-435) (Y73A) and (Y348A); made in house; host or cells: E. coli (pET15b)
T6 sequence (Q15059 1-435 Y348A): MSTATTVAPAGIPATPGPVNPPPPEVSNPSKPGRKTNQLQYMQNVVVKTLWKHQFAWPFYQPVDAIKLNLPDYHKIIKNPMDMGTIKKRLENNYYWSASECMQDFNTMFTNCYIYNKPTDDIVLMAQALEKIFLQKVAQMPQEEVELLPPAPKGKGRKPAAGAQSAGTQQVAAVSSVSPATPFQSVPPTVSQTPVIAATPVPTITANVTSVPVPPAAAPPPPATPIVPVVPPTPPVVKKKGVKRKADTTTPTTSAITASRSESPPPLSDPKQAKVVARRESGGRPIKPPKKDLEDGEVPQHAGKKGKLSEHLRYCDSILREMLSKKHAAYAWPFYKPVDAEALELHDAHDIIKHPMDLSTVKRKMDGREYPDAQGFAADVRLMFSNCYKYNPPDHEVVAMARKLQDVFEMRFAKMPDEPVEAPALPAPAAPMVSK
Kind of data set: TR-FRET competition assay, BRD3 BD1. It counts as binding. The note with it: TR-FRET competition with Reference Compound X; range stated for the listed group; read-out: mean pIC50 in the BRD3 BD1 assay (converted).

In data set [7] the target is T7, BRD4 BD1 (Homo sapiens, UniProt O60885, Y390A).
T7 construct: BRD4 (1-477) (Y97A) and (Y390A); made in house; host or cells: E. coli (pET15b)
Description: TR-FRET competition assay, BRD4 BD1. It is filed as binding. The note with it: TR-FRET competition with Reference Compound X, single mutant tandem protein; read-out: mean pIC50 in the BRD4 BD1 assay (converted).

For data set [8], the target named is T8, BRD4 BD2 (Homo sapiens, UniProt O60885, Y97A).
T8 construct: BRD4 (1-477) (Y97A) and (Y390A); made in house; host or cells: E. coli (pET15b)
Description: TR-FRET competition assay, BRD4 BD2. It is filed as binding. As to conditions: TR-FRET competition with Reference Compound X, single mutant tandem protein; read-out: mean pIC50 in the BRD4 BD2 assay (converted).

For data set [9], the system named is MCP-1 production. Kind of data set: LPS induced MCP-1 production from human whole blood. The note with it: human whole blood, LPS 200 ng/mL, 18-24 hours; read-out: mean pIC50, LPS induced MCP-1 production (converted). It counts as cell-based.
The subject of data set [10] is TNP-KLH induced Immunoglobulin-1 (IgG1) production. Kind of data set: TNP-KLH induced IgG1 production mouse assay. It counts as in vivo. As to conditions: for Day 14 IgG1: male CD1 mice.
The subject of data set [11] is double mutant tandem BET proteins (BRD2, BRD3, BRD4, BRDT). Description: Fluorescence Polarisation binding of Reference Compound X to mutant tandem BET proteins. The arrangement: species or system human. A general note: Polarisation of emitted light reports the rotation of a fluorescent probe.

T2 sequence (P25440 1-473 Y113A): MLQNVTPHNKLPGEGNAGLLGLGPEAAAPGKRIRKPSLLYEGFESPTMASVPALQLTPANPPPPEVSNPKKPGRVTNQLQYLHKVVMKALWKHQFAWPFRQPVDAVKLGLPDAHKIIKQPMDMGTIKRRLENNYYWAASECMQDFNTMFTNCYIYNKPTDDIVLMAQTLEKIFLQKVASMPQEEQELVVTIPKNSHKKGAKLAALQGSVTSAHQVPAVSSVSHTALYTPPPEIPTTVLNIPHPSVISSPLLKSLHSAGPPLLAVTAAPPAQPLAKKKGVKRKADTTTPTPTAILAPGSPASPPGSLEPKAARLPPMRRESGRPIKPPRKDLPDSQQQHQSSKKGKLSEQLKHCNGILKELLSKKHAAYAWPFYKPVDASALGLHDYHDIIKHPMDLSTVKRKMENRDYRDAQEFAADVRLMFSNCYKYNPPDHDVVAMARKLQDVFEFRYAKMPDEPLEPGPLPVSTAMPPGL
T5 sequence (Q15059 1-435 Y73A): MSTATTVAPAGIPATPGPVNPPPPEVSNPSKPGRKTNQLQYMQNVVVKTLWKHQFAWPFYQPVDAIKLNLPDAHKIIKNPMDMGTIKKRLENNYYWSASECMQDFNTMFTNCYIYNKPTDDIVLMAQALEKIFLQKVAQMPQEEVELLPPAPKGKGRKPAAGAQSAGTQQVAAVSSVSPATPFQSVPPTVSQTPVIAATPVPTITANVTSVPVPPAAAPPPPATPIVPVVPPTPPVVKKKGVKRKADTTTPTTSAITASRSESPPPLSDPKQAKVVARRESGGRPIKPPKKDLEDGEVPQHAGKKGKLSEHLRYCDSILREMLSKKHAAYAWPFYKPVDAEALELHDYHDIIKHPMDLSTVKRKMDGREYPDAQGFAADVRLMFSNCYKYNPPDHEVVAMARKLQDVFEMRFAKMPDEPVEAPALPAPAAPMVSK

Regarding `Cc1cc(-c2nccn2CC2CCCCO2)cn(C)c1=O` (racemic) [Example 7, rac-1,3-dimethyl-5-(1-((tetrahydro-2H-pyran-2-yl)methyl)-1H-imidazol-2-yl)pyridin-2(1H)-one], the IC50 in data set [1] was 39.8 to 12600 nM; in data set [2] it was 1000 to 50100 nM; in data set [3] it was 2000 to 25100 nM; in data set [4], 12.6 to 7940 nM.

With `CC(=O)N1CCCC(Cn2cc(Cl)nc2-c2cc(C)c(=O)n(C)c2)C1` (single isomer, unassigned) [Example 25, 5-(1-((1-acetylpiperidin-3-yl)methyl)-4-chloro-1H-imidazol-2-yl)-1,3-dimethylpyridin-2(1H)-one], the IC50 in data set [1] is 39.8 to 12600 nM; in [2], 1000 to 50100 nM; in [5] it was 251 to 1000 nM; in data set [3], 2000 to 25100 nM; in data set [4], 12.6 to 7940 nM; in data set [6], 20 to 79.4 nM.

For the compound `Cc1cc(-c2nc(Cl)cn2CC2CCCOC2)cn(C)c1=O` (single isomer, unassigned) [Example 29, 5-(4-chloro-1-((tetrahydro-2H-pyran-3-yl)methyl)-1H-imidazol-2-yl)-1,3-dimethylpyridin-2(1H)-one], the IC50 in data set [1] is 39.8 to 12600 nM; in data set [2], 1000 to 50100 nM; in [5] it was 251 to 1000 nM; in data set [3] it was 2000 to 25100 nM; in [4] it was 12.6 to 7940 nM; in data set [6], 20 to 79.4 nM.

Turning to `Cc1cc(-c2ncc[nH]2)cn(C)c1=O` [Example 1, 5-(1H-imidazol-2-yl)-1,3-dimethylpyridin-2(1H)-one], the IC50 in data set [1] is 39.8 to 12600 nM; in [2] it was 1000 to 50100 nM; in data set [3], greater than 50100 nM; in data set [4], 12.6 to 7940 nM.

Take `Cc1cc(-c2nccn2CC2CC2)cn(C)c1=O` [Example 3, 5-(1-(cyclopropylmethyl)-1H-imidazol-2-yl)-1,3-dimethylpyridin-2(1H)-one]: the IC50 in [1] is 39.8 to 12600 nM; in data set [2] it was 1000 to 50100 nM; in [3], 2000 to 25100 nM; in data set [4] it was 12.6 to 7940 nM.

For the compound `Cc1cc(-c2nccn2CC(C)C)cn(C)c1=O` [Example 5, 5-(1-isobutyl-1H-imidazol-2-yl)-1,3-dimethylpyridin-2(1H)-one], the IC50 was 39.8 to 12600 nM in [1], 1000 to 50100 nM in [2], 2000 to 25100 nM in [3] and 12.6 to 7940 nM in data set [4].

Regarding `Cc1cc(-c2nccn2CC2CCOCC2)cn(C)c1=O` [Example 6, 1,3-dimethyl-5-(1-((tetrahydro-2H-pyran-4-yl)methyl)-1H-imidazol-2-yl)pyridin-2(1H)-one], the IC50 in data set [1] was 39.8 to 12600 nM; in data set [2], 1000 to 50100 nM; in data set [3], 2000 to 25100 nM; in data set [4] it was 12.6 to 7940 nM.

On to `COCC(COC)n1cc(Cl)nc1-c1cc(C)c(=O)n(C)c1` [Example 22, 5-(4-chloro-1-(1,3-dimethoxypropan-2-yl)-1H-imidazol-2-yl)-1,3-dimethylpyridin-2(1H)-one], for which the IC50 was 50.1 nM in [7], 2000 nM in data set [8] and 100 nM in data set [9].

For `Cc1cc(-c2nc(Cl)cn2CC2CCOCC2)cn(C)c1=O` [Example 30, 5-(4-chloro-1-((tetrahydro-2H-pyran-4-yl)methyl)-1H-imidazol-2-yl)-1,3-dimethylpyridin-2(1H)-one], the “% reduction in IgG1 from vehicle” value was 0% in data set [10] (day 14, 1.5 mg/kg BID oral); 86*** % in data set [10] (day 14, 5.0 mg/kg BID oral, ***P<0.01); 99*** % in data set [10] (day 14, 15 mg/kg BID oral, ***P<0.01). Moreover, the “Day 14 IgG1” value amounted to 5.01 ± 3.30 µg/mL in data set [10] (1.5 mg/kg BID oral, 14 days); 0.85 ± 1.18 µg/mL in data set [10] (5.0 mg/kg BID oral, 14 days); 0.03 ± 0.03 µg/mL in data set [10] (15 mg/kg BID oral, 14 days). Moreover, the “adverse side effects during in life phase” value in [10] (male CD1 mice, 1.5, 5 or 15 mg/kg BID oral, 14 days) is reported as “No adverse side effects were observed”. Also, the IC50 in data set [6] is 20 to 79.4 nM.

Consider `Cc1cc(-c2nc(C(=O)O)cn2CC2CCOCC2)cn(C)c1=O` [Example 35, 2-(1,5-dimethyl-6-oxo-1,6-dihydropyridin-3-yl)-1-((tetrahydro-2H-pyran-4-yl)methyl)-1H-imidazole-4-carboxylic acid], for which, in data set [9], the IC50 is greater than 20000 nM.

For the compound `COc1ccc2c(c1)C(c1ccc(Cl)cc1)=N[C@@H](CC(=O)NCCCCCNC(=O)CCCCCC1(C)/C(=C/C=C/C=C/C3=[N+](CCCCS(=O)(=O)O)c4ccc(S(=O)(=O)O)cc4C3(C)C)N(CCCCS(=O)(=O)[O-])c3ccc(S(=O)(=O)O)cc31)c1nnc(C)n1-2` (stereo partly drawn) [Reference Compound X], the “reduction in Kd versus non mutated, wild type tandem BET proteins” value in data set [11] is greater than 1000 fold.
